Experimental findings from US4810721A, “Pyrrolidineamide derivative having anti-prolyl endopeptidase” (Suntory Limited, priority 1986, dated 1989) are described below.

In one experiment the target is prolyl endopeptidase (Elizabethkingia meningoseptica, UniProt P27028). Description: Anti-prolyl endopeptidase activity (inhibition of digestion of Z-glycyl-prolyl-β-naphthylamide). It is filed as biochemical. As to conditions: amount for 50% inhibition; 0.0025M Z-glycyl-prolyl-β-naphthylamide (0.25 ml), pH 7.0, 35° C., 10 minutes, absorbance at 410 nm. As to the method:
The method of Yoshimoto and Tsuru [T. Yoshimoto and D. Tsuru, Agric. Biol. Chem., 42, 2417 (1978)] was used to measure the anti-prolyl endopeptidase activities of several compounds of the present invention. A mixture of 0.0025M Z-glycyl-prolyl-β-naphthylamide (0.25 ml), 0.1M phosphate buffer (pH, 7.0; 0.99 ml) and a solution of a particular anti-prolyl endopeptidase compound (0.01 ml) was incubated in a test tube at 37° C. for 3 minutes. Thereafter, 0.1 ml of a solution of prolyl endopeptidase (0.2 U/ml) was added and the mixture was incubated at 35° C. for 10 minutes. After the reaction, 2.0 ml of Triton X-100 in 1M acetate buffer (pH, 4.0) was added to the reaction mixture so that the final concentration of the surfactant might be 10%. The mixture was left at room temperature for 15 minutes and the absorbance (a) at 410 nm was measured.
A sample of a blind test was prepared by using the buffer instead of the anti-prolyl endopeptidase compound and its absorbance (b) was also measured. The percentage of inhibition against prolyl endopeptidase was calculated by the formula: […]
and the amount of a specific compound need to achieve 50% inhibition (IC50) was determined.

The next experiment concerns DDY strain male mice. Description: Memory fixation test in mice (passive avoidance learning). It is filed as in vivo. As to conditions: 5 mice, assessed 24 hours after learning, physiological saline control 47 sec. How it is done: The measurement was conducted in accordance with the method described in Experientia 40, 506 (1984) with a slight modification made by the inventors. Several of the compounds of the invention were checked for their ability to enhance long-term memory fixation in the passive avoidance learning method using an apparatus which has an electrifiable grid floor and a refuge platform on one end of the floor. […] One hour after the administration, electric shocks were applied to the mice in a black box so that they would acquire passive avoidance learning.
The results of the test were assessed 24 hours after the learning in terms of the memory fixation acquired in the passive avoidance learning by measuring the residence time (latency) during which the mice stayed on the platform. The results between the test groups which received the test compound and the control group which received physiological saline in place of the test compound were compared.

Chain of prolyl endopeptidase (P27028 21-705): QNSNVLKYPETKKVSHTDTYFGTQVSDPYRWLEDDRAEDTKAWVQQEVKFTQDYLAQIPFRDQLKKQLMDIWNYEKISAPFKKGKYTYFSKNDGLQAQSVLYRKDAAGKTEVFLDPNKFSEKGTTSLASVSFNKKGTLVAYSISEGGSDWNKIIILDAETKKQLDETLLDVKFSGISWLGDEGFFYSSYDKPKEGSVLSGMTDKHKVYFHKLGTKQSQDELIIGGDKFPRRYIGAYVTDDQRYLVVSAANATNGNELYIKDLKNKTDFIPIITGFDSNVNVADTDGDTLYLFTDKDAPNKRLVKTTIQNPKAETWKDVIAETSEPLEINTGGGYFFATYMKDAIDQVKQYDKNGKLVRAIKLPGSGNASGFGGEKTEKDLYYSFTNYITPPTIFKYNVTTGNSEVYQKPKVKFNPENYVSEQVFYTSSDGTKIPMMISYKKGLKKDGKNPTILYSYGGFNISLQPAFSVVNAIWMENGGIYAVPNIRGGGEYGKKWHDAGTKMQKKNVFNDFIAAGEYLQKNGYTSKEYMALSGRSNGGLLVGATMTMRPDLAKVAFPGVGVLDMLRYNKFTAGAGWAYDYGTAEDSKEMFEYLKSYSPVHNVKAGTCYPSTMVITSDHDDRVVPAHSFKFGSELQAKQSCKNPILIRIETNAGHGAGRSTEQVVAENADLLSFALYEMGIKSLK

At prolyl endopeptidase, `O=C(O[C@@H]1C[C@@H](C(=O)N2CCCC2)N(C(=O)CCCc2ccccc2)C1)c1ccc(Cl)cc1` [SUAM 14499, N-[N-(4-phenylbutanoyl)-trans-4-(4-chlorobenzoyloxy)-L-prolyl]pyrrolidine] registered an IC50 of 0.20 μg/test tube.
Take `O=C([C@@H]1C[C@H](Oc2ccccc2)CN1C(=O)CCCc1ccccc1)N1CCCC1` [SUAM 14504, N-[N-(4-phenylbutanoyl)-cis-4-phenoxy-L-prolyl]pyrrolidine]: at prolyl endopeptidase, the IC50 is reported as 0.02 μg/test tube.
On the same count and under the same terms, then `COc1ccc(C(=O)O[C@@H]2C[C@@H](C(=O)N3CCCC3)N(C(=O)CCCc3ccccc3)C2)cc1` [SUAM 14497, N-[N-4-phenylbutanoyl)-trans-4-(4-methoxybenzoyloxy-L-prolyl]pyrrolidine], with 0.15 μg/test tube.
As for `CC(=O)O[C@@H]1C[C@@H](C(=O)N2CCCC2)N(C(=O)CCCc2ccccc2)C1` [SUAM 14506, N-[N-(4-phenylbutanoyl)-trans-4-acetoxy-L-prolyl]pyrrolidine], the IC50 at prolyl endopeptidase is 0.03 μg/test tube. Also, in the experiment on DDY strain male mice (3.0 mg/kg per os), the Latency amounted to 64 s.
For `CC(=O)O[C@H]1C[C@@H](C(=O)N2CCCC2)N(C(=O)CCCc2ccccc2)C1` [SUAM 14507, N-[N-(4-phenylbutanoyl)-cis-4-acetoxy-L-prolyl]pyrrolidine] the same measures were 0.10 μg/test tube and 53 s.
For `O=C([C@@H]1C[C@H](O)CN1C(=O)CCCc1ccccc1)N1CCCC1` [SUAM 14496, N-[N-(4-phenylbutanoyl)-cis-4-hydroxy-L-prolyl]pyrrolidine], the IC50 against prolyl endopeptidase worked out at 0.10 μg/test tube. For the same molecule, the values for the Latency in the experiment on DDY strain male mice (0.3 mg/kg per os), in the experiment with DDY strain male mice (1.0 mg/kg per os) and in the experiment with DDY strain male mice (3.0 mg/kg per os) were 147 s, 138 s and 135 s, respectively.
On to `O=C([C@@H]1C[C@H](Oc2ccc(Cl)cc2)CN1C(=O)CCCc1ccccc1)N1CCCC1` [SUAM 14508, N-[N-(4-phenylbutanoyl)-cis-4-(4-chlorophenoxy)-L-prolyl]pyrrolidine], for which, on prolyl endopeptidase, the IC50 is 0.04 μg/test tube.
Same read-out and setting: for `COc1ccc(C(=O)O[C@H]2C[C@@H](C(=O)N3CCCC3)N(C(=O)CCCc3ccccc3)C2)cc1` [SUAM 14501] the value was 0.04 μg/test tube; for `O=C(O[C@H]1C[C@@H](C(=O)N2CCCC2)N(C(=O)CCCc2ccccc2)C1)c1ccc(Cl)cc1` [SUAM 14503, N-[N-(4-phenylbutanoyl)-cis-4-(4-chlorobenzoyloxy)-L-prolyl]pyrrolidine], 0.06 μg/test tube.
`O=C([C@@H]1C[C@@H](O)CN1C(=O)CCCc1ccccc1)N1CCCC1` [SUAM 14432, N-[N-(4-phenylbutanoyl)-trans-4-hydroxy-L-prolyl]pyrrolidine] yielded an IC50 at prolyl endopeptidase of 0.07 μg/test tube. In addition, the Latency in the experiment on DDY strain male mice (1.0 mg/kg per os) is 76 s; in the experiment with DDY strain male mice (3.0 mg/kg per os) it was 153 s.
For `COc1ccc(O[C@H]2C[C@@H](C(=O)N3CCCC3)N(C(=O)CCCc3ccccc3)C2)cc1` [SUAM 14441, N-[N-(4-phenylbutanoyl)-cis-4-(4-methoxyphenoxy)-L-prolyl]pyrrolidine], on prolyl endopeptidase, the IC50 came to 0.01 μg/test tube. The molecule also gave a Latency with DDY strain male mice (1.0 mg/kg per os) of 101 s.
With `O=C(O[C@@H]1C[C@@H](C(=O)N2CCCC2)N(C(=O)CCCc2ccccc2)C1)c1ccccc1` [SUAM 14498], on prolyl endopeptidase, the IC50 is listed as 0.30 μg/test tube.
Still for that read-out and setting: then `COc1ccc(O[C@H]2C[C@@H](C(=O)N3CCCC3)N(C(=O)OCc3ccccc3)C2)cc1` [SUAM 14491, N-[N-benzyloxycarbonyl-cis-4-(4-methoxyphenoxy)-L-prolyl]pyrrolidine], with 0.04 μg/test tube; and `O=C(O[C@H]1C[C@@H](C(=O)N2CCCC2)N(C(=O)CCCc2ccccc2)C1)c1ccccc1` [SUAM 14502, N-[N-(4-phenylbutanoyl)-cis-4-benzoyloxy-L-prolyl]pyrrolidine], with 0.06 μg/test tube.
On to `Cc1ccc(O[C@H]2C[C@@H](C(=O)N3CCCC3)N(C(=O)CCCc3ccccc3)C2)cc1` [SUAM 14509, N-[N-(4-phenylbutanoyl)-cis-4-(4-methylphenoxy)-L-prolyl]pyrrolidine], for which the IC50 on prolyl endopeptidase is given as 0.03 μg/test tube. In addition, the Latency in the experiment on DDY strain male mice (3.0 mg/kg per os) was 95 s.
`COc1cccc(O[C@H]2C[C@@H](C(=O)N3CCCC3)N(C(=O)CCCc3ccccc3)C2)c1` [SUAM 14468, N-[N-(4-phenylbutanoyl)-cis-4-(3-methoxyphenoxy)-L-prolyl]pyrrolidine]: the IC50 against prolyl endopeptidase turned out to be 0.03 μg/test tube.
With `COc1ccccc1O[C@H]1C[C@@H](C(=O)N2CCCC2)N(C(=O)CCCc2ccccc2)C1` [SUAM 14467, N-[N-(4-phenylbutanoyl)-cis-4-(2-methoxyphenoxy)-L-prolyl]pyrrolidine], the IC50 on prolyl endopeptidase amounted to 0.008 μg/test tube.
